Assay results reported in patent US20240182531A1, “KV1.3 Blockers” (priority 2021, published 2024).
Where a SMILES comes first, the peptide text is derived from it. Bridges are numbered along the chain shown (N, C = ends). [ ]: non-standard residue; d: D form. Phe(4-NH2) = Nc1ccc(C[C@H](N)C(=O)O)cc1; Nle = CCCC[C@H](N)C(=O)O

Experiments:
human Kv1.1 = target: T1, human Kv1.1 (Homo sapiens, UniProt Q09470); assay: cell-based; settings: ratio of patch clamp IC50 values
T1 construct: expressed in transfected cells; host or cells: CHO
T1 sequence (Q09470 whole entry): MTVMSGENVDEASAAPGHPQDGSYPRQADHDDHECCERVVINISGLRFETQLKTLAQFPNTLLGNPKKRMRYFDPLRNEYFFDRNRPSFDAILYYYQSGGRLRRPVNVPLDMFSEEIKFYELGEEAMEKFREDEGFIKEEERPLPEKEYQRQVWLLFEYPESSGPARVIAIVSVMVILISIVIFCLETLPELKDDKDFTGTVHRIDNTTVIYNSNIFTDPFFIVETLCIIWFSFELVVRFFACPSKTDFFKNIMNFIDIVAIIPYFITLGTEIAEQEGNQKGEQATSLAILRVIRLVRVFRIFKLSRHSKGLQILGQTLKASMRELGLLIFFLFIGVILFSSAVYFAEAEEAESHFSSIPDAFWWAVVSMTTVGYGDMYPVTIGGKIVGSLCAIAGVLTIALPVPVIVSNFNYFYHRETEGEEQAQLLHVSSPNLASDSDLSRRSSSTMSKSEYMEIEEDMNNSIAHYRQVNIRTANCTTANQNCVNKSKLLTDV

Rat whole blood = Rat whole blood (Rattus norvegicus, UniProt P15384); type: cell-based; settings: IL-17A release, thapsigargin, 24 Hr, at least 2 replicates
Sequence of Rat whole blood (P15384 whole entry): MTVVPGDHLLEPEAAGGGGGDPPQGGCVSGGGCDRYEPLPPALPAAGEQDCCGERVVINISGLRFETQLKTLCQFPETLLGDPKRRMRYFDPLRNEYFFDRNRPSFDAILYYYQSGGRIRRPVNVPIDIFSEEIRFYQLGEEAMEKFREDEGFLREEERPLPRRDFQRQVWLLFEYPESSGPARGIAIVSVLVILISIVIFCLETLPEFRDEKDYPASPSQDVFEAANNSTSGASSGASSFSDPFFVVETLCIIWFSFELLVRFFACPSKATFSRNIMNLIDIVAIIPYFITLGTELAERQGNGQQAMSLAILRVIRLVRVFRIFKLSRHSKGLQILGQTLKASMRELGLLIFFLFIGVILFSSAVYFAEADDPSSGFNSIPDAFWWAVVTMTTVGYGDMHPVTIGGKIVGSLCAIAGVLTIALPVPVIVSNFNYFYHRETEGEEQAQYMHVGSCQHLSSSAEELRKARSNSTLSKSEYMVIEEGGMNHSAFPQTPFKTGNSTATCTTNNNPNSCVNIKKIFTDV

human Kv1.2 = target: T2, human Kv1.2 (Homo sapiens, UniProt P16389); assay: cell-based; settings: ratio of patch clamp IC50 values
T2 construct: expressed in transfected cells; host or cells: CHO
T2 sequence (P16389 whole entry): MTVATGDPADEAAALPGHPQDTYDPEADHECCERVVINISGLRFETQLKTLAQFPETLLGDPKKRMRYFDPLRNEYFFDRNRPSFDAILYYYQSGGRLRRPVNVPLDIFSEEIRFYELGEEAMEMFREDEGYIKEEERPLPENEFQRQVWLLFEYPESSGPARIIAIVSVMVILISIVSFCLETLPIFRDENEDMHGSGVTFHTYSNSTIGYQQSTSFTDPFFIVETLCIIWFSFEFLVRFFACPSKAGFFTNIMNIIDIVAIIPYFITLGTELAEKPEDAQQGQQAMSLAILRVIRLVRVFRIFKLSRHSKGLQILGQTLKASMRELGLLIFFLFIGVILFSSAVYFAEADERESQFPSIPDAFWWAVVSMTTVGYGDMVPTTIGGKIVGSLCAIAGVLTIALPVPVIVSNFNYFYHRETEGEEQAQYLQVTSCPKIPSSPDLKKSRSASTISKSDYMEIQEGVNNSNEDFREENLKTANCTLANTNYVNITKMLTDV

human Kv1.6 = target: T3, human Kv1.6 (Homo sapiens, UniProt P17658); assay: cell-based; settings: ratio of patch clamp IC50 values
T3 construct: expressed in transfected cells; host or cells: CHO
T3 sequence (P17658 whole entry): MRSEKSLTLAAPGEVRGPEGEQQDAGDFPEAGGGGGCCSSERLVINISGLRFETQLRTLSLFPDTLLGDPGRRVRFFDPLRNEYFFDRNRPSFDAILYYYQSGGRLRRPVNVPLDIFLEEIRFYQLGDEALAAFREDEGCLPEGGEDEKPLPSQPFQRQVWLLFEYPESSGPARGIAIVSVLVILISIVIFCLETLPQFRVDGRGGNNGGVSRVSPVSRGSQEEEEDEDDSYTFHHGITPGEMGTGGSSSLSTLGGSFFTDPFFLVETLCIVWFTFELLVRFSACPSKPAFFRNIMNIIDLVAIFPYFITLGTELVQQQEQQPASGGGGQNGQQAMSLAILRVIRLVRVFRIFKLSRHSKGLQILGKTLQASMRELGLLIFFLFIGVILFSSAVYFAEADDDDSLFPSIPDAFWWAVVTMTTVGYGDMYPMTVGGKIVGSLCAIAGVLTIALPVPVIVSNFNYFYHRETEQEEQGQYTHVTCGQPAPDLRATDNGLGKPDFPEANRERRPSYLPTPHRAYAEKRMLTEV

SMILES | Selectivity ratio Kv1.1/Kv1.3 (human Kv1.1) | IC50 (Rat whole blood) | Selectivity ratio Kv1.2/Kv1.3 (human Kv1.2) | Selectivity ratio Kv1.6/Kv1.3 (human Kv1.6)
CC[C@H](C)[C@@H]1NC(=O)[C@H](C)NC(=O)[C@H](CCCCN)NC(=O)[C@H](CC(C)C)NC(=O)[C@@H]2CSSC[C@@H](C(=O)N[C@@H](Cc3ccc(O)cc3)C(=O)N3CCC[C@H]3C(=O)N[C@@H](CCCNC(=N)N)C(N)=O)NC(=O)[C@H](CCCCN)NC(=O)[C@@H]3CSSC[C@H](NC(=O)[C@H](CCC(=O)O)NC(=O)[C@H](C(C)C)NC(=O)[C@H](CO)NC(=O)[C@H](C)NC(=O)[C@H](CO)NC(=O)[C@@H](NC(=O)[C@H](CCCNC(=N)N)NC(=O)[C@H](CCSC)NC(=O)[C@H](CC(=O)O)NC(=O)[C@H](CCSC)NC(=O)[C@@H](N)CC(N)=O)CSSC[C@H](NC(=O)[C@H](CCCCN)NC(=O)CNC(=O)[C@H](Cc4ccccc4)NC(=O)[C@H]([C@@H](C)CC)NC(=O)[C@H](CO)NC(=O)[C@H](CCC(=O)O)NC1=O)C(=O)N[C@@H](CCSC)C(=O)N[C@@H](CC(N)=O)C(=O)N[C@@H](CCCCN)C(=O)N[C@@H](CCCCN)C(=O)N3)C(=O)N[C@@H](CCCCN)C(=O)N[C@@H](CCC(N)=O)C(=O)N[C@@H](CCCCN)C(=O)N2 [compound 27] (H-NMDMRCSASVECKQKCLKAIESIFGKCMNKKCKCYPR-NH2; disulfide 6-27, 12-32, 16-34) | >10200 | 2.8 nM | 615 | >10200
CC[C@H](C)[C@@H]1NC(=O)[C@H](C)NC(=O)[C@H](CCCCN)NC(=O)[C@H](CC(C)C)NC(=O)[C@@H]2CSSC[C@@H](C(=O)N[C@@H](Cc3ccc(O)cc3)C(=O)N3CCC[C@H]3C(=O)N[C@@H](CCCNC(=N)N)C(N)=O)NC(=O)[C@H](CCCCN)NC(=O)[C@@H]3CSSC[C@H](NC(=O)[C@H](CCC(=O)O)NC(=O)[C@H](C(C)C)NC(=O)[C@H](CO)NC(=O)[C@H](C)NC(=O)[C@H](CO)NC(=O)[C@@H](NC(=O)[C@H](CCCNC(=N)N)NC(=O)[C@H](CCSC)NC(=O)[C@H](CC(=O)O)NC(=O)[C@H](CCSC)NC(=O)[C@@H](N)CC(N)=O)CSSC[C@H](NC(=O)[C@H](CCCCN)NC(=O)CNC(=O)[C@H](Cc4ccccc4)NC(=O)[C@H]([C@@H](C)CC)NC(=O)[C@H](CO)NC(=O)[C@H](CCCNC(=N)N)NC1=O)C(=O)N[C@@H](CCSC)C(=O)N[C@@H](CC(N)=O)C(=O)N[C@@H](CCCCN)C(=O)N[C@@H](CCCCN)C(=O)N3)C(=O)N[C@@H](CCCCN)C(=O)N[C@@H](CCC(N)=O)C(=O)N[C@@H](CCCCN)C(=O)N2 [compound 26] (H-NMDMRCSASVECKQKCLKAIRSIFGKCMNKKCKCYPR-NH2; disulfide 6-27, 12-32, 16-34) | >13700 | 0.82 nM | 259 | 2851
CC[C@H](C)[C@@H]1NC(=O)[C@H](C)NC(=O)[C@H](CCCCN)NC(=O)[C@H](CC(C)C)NC(=O)[C@@H]2CSSC[C@@H](C(=O)N[C@@H](Cc3ccc(O)cc3)C(=O)N3CCC[C@H]3C(=O)N[C@@H](CCCNC(=N)N)C(N)=O)NC(=O)[C@H](CCCCN)NC(=O)[C@@H]3CSSC[C@H](NC(=O)[C@H](CCC(=O)O)NC(=O)[C@H](C(C)C)NC(=O)[C@H](CO)NC(=O)[C@H](C)NC(=O)[C@H](CO)NC(=O)[C@@H](NC(=O)[C@H](CCCNC(=N)N)NC(=O)[C@H](CCSC)NC(=O)[C@H](CC(=O)O)NC(=O)[C@H](CCSC)NC(=O)[C@@H](N)CC(N)=O)CSSC[C@H](NC(=O)[C@H](CCCCN)NC(=O)CNC(=O)[C@H](Cc4ccccc4)NC(=O)[C@H]([C@@H](C)CC)NC(=O)[C@H](CO)NC(=O)CNC1=O)C(=O)N[C@@H](CCSC)C(=O)N[C@@H](CC(N)=O)C(=O)N[C@@H](CCCCN)C(=O)N[C@@H](CCCCN)C(=O)N3)C(=O)N[C@@H](CCCCN)C(=O)N[C@@H](CCC(=O)O)C(=O)N[C@@H](CCCCN)C(=O)N2 [compound 35] (H-NMDMRCSASVECKEKCLKAIGSIFGKCMNKKCKCYPR-NH2; disulfide 6-27, 12-32, 16-34) | >10800 | 0.86 nM | 648 | >10800
CC[C@H](C)[C@@H]1NC(=O)[C@H](C)NC(=O)[C@H](CCCCN)NC(=O)[C@H](CC(C)C)NC(=O)[C@@H]2CSSC[C@@H](C(=O)N[C@@H](Cc3ccc(O)cc3)C(=O)N3CCC[C@H]3C(=O)N[C@@H](CCCNC(=N)N)C(N)=O)NC(=O)[C@H](CCCCN)NC(=O)[C@@H]3CSSC[C@H](NC(=O)[C@H](CCC(=O)O)NC(=O)[C@H](C(C)C)NC(=O)[C@H](CO)NC(=O)[C@H](C)NC(=O)[C@H](CO)NC(=O)[C@@H](NC(=O)[C@H](CCCNC(=N)N)NC(=O)[C@H](CCSC)NC(=O)[C@H](CC(=O)O)NC(=O)[C@H](CCSC)NC(=O)[C@@H](N)CC(N)=O)CSSC[C@H](NC(=O)[C@H](CCCCN)NC(=O)CNC(=O)[C@H](Cc4ccccc4)NC(=O)[C@H]([C@@H](C)CC)NC(=O)[C@H](CO)NC(=O)CNC1=O)C(=O)N[C@@H](CCSC)C(=O)N[C@@H](CC(N)=O)C(=O)N[C@@H](CCCCN)C(=O)N[C@@H](CCCCN)C(=O)N3)C(=O)N[C@@H](CC(C)C)C(=O)N[C@@H](CCC(N)=O)C(=O)N[C@@H](CCCCN)C(=O)N2 [compound 33] (H-NMDMRCSASVECLQKCLKAIGSIFGKCMNKKCKCYPR-NH2; disulfide 6-27, 12-32, 16-34) | >7400 | 0.76 nM | 2163 | >7400
CC[C@H](C)[C@@H]1NC(=O)[C@H](C)NC(=O)[C@H](CCCCN)NC(=O)[C@H](CC(C)C)NC(=O)[C@@H]2CSSC[C@@H](C(=O)N[C@@H](Cc3ccc(O)cc3)C(=O)N3CCC[C@H]3C(=O)N[C@@H](CCCNC(=N)N)C(N)=O)NC(=O)[C@H](CCCCN)NC(=O)[C@@H]3CSSC[C@H](NC(=O)[C@H](CCC(=O)O)NC(=O)[C@H](C(C)C)NC(=O)[C@H](CO)NC(=O)[C@H](C)NC(=O)[C@H](CO)NC(=O)[C@@H](NC(=O)[C@H](CCCNC(=N)N)NC(=O)[C@H](CCSC)NC(=O)[C@H](CC(=O)O)NC(=O)[C@H](CCSC)NC(=O)[C@@H](N)CC(N)=O)CSSC[C@H](NC(=O)[C@H](CCCCN)NC(=O)CNC(=O)[C@H](Cc4ccccc4)NC(=O)[C@H]([C@@H](C)CC)NC(=O)[C@H](CO)NC(=O)CNC1=O)C(=O)N[C@@H](CCSC)C(=O)N[C@@H](CC(N)=O)C(=O)N[C@@H](CCCCN)C(=O)N[C@@H](CCCCN)C(=O)N3)C(=O)N[C@@H](CCCCN)C(=O)N[C@@H](CCC(N)=O)C(=O)N[C@@H](CC(C)C)C(=O)N2 [compound 23] (H-NMDMRCSASVECKQLCLKAIGSIFGKCMNKKCKCYPR-NH2; disulfide 6-27, 12-32, 16-34) | >12700 | 3.2 nM | 1080 | >12700
CC[C@H](C)[C@@H]1NC(=O)[C@H](C)NC(=O)[C@H](CCCCN)NC(=O)[C@H](CC(C)C)NC(=O)[C@@H]2CSSC[C@@H](C(=O)N[C@@H](Cc3ccc(O)cc3)C(=O)N3CCC[C@H]3C(=O)N[C@@H](CCCNC(=N)N)C(N)=O)NC(=O)[C@H](CCCCN)NC(=O)[C@@H]3CSSC[C@H](NC(=O)[C@H](CCC(N)=O)NC(=O)[C@H](C(C)C)NC(=O)[C@H](CO)NC(=O)[C@H](C)NC(=O)[C@H](CO)NC(=O)[C@@H](NC(=O)[C@H](CCCNC(=N)N)NC(=O)[C@H](CCSC)NC(=O)[C@H](CC(=O)O)NC(=O)[C@H](CCSC)NC(=O)[C@@H](N)CC(N)=O)CSSC[C@H](NC(=O)[C@H](CCCCN)NC(=O)CNC(=O)[C@H](Cc4ccccc4)NC(=O)[C@H]([C@@H](C)CC)NC(=O)[C@H](CO)NC(=O)CNC1=O)C(=O)N[C@@H](CCSC)C(=O)N[C@@H](CC(N)=O)C(=O)N[C@@H](CCCCN)C(=O)N[C@@H](CCCCN)C(=O)N3)C(=O)N[C@@H](CCCCN)C(=O)N[C@@H](CCC(N)=O)C(=O)N[C@@H](CCCCN)C(=O)N2 [compound 32] (H-NMDMRCSASVQCKQKCLKAIGSIFGKCMNKKCKCYPR-NH2; disulfide 6-27, 12-32, 16-34) | >15200 | 0.53 nM | 83 | 1272
CCCC[C@H](NC(=O)[C@H](CC(=O)O)NC(=O)[C@H](CCCC)NC(=O)[C@@H](N)CO)C(=O)N[C@@H](CCCNC(=N)N)C(=O)N[C@H]1CSSC[C@@H]2NC(=O)[C@H](CCCCN)NC(=O)CNC(=O)[C@H](Cc3ccccc3)NC(=O)[C@H]([C@@H](C)CC)NC(=O)[C@H](CO)NC(=O)CNC(=O)[C@H]([C@@H](C)CC)NC(=O)[C@H](C)NC(=O)[C@H](CCCCN)NC(=O)[C@H](CC(C)C)NC(=O)[C@@H]3CSSC[C@@H](C(=O)N[C@@H](Cc4ccc(N)cc4)C(=O)N4CCC[C@H]4C(=O)N[C@@H](CCCNC(=N)N)C(N)=O)NC(=O)[C@H](CCCCN)NC(=O)[C@H](CSSC[C@H](NC(=O)[C@H](CCC(=O)O)NC(=O)[C@H](C(C)C)NC(=O)[C@H](CO)NC(=O)[C@H](C)NC(=O)[C@H](CO)NC1=O)C(=O)N[C@@H](CCCCN)C(=O)N[C@@H](CCC(N)=O)C(=O)N[C@@H](CCCCN)C(=O)N3)NC(=O)[C@H](CCCCN)NC(=O)[C@H](CCCCN)NC(=O)[C@H](CC(N)=O)NC(=O)[C@H](CCSC)NC2=O [compound 70] (H-S[Nle]D[Nle]RCSASVECKQKCLKAIGSIFGKCMNKKCKC[Phe(4-NH2)]PR-NH2; disulfide 6-27, 12-32, 16-34) | >12200 | 0.79 nM | 1720 | >12200
